Activity calls are given as the source filed them.
Key:
[1] = cytotoxicity dependent on PAX8, dose response, cell-based, plate reader, dry powder (AID 743049); format: functional
BJ [2] = experiment: cells; format: functional, cell-based, Homo sapiens; settings: Homo sapiens, BJ
A-375 [3] = experiment: MITF: Counter assay: A375 proliferation Measured in Cell-Based System Using Plate Reader - 2084-03_Inhibitor_Dose_DryPowder_Activity. [Related pubchem assays (depositor defined):AID488944]; format: functional; settings: Homo sapiens
[4] = molecular target: Nuclear receptor subfamily 0 group B member 1 (Homo sapiens, UniProt P51843); format: functional, cell-based;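 note: HEK293T cells transfected with SF-1 and DAX-1 plus StAR promoter luciferase reporter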
[5] = cytotoxicity in HEK-293T cells, dose response, cytotoxicity control for TCR NF-kB inhibitor project, luminescence, T-cell screen hits (AID 489026); format: functional, cell-based;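 note: cells exposed to compound about 14 hours before the viability readout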
[6] = cytotoxicity toward DRD oncogenic fibroblasts, dose response, cell-based, non-viral oncogenic, luminescence (AID 1934); format: functional; settings: Homo sapiens
[7] = inhibitors of SNCA 5'UTR-driven reporter translation, confirmation, H4 neuroglioma cells, luminescence (AID 1988); format: functional, cell-based
BJ [8] = experiment: cytotoxicity toward BJ-TERT fibroblasts, dose response, cell-based, RAS-independent, luminescence (AID 1933); format: functional, Homo sapiens; settings: Homo sapiens, BJ
[9] = Luminescence Cell-Based Dose Response HTS to Identify Inhibitors of 5'UTR Stem-Loop Driven Prion Protein mRNA Translation in H4 Neuroglioblastoma Cells. [Related pubchem assays: 1827 (Project Summary), 1813 (Primary HTS)]; format: functional
[10] = A2780 ovarian cancer cell cytotoxicity, dose response, cytotoxicity control, plate reader, dry powder samples (AID 743046); format: functional, cell-based
[11] = IGROV1 ovarian cancer cell cytotoxicity, dose response, PAX8 inhibitor project, plate reader, dry powder samples (AID 743043); format: functional, cell-based; settings: IGROV-1
cells [12] = format: functional, cell-based
A-375 [13] = experiment: A375 melanoma cell viability reduction, dose response, counter-screen for MITF modulator project, cherry-pick samples, set 2 (AID 540335); format: functional, cell-based; settings: Homo sapiens
[14] = PAX5 activity inhibitors, dose response, selectivity assay for PAX8 inhibitor project, cell-based, plate reader, dry powder samples (AID 743047); format: functional;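 note: HEK293 cells carrying a Pax5 driven CD19 promoter luciferase reporter; potency of inhibitors that lower reporter luminescence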
[15] = NIH:OVCAR-3 ovarian cancer cell cytotoxicity, dose response, PAX8 inhibitor project, plate reader, dry powder samples (AID 743044); format: functional, cell-based
[16] = cytotoxicity in OV-90 ovarian cancer cells, dose response, PAX8 inhibitor project, cell-based, plate reader, dry powder, SA8 (AID 743149); format: functional
[17] = IOSE-T80 ovarian epithelial cell cytotoxicity, dose response, cytotoxicity control for PAX8 inhibitor project, plate reader, dry powder samples (AID 743045); format: functional, cell-based
[18] = inhibitors of SNCA 5'UTR-driven translation, confirmation, luminescence, H4 neuroglioblastoma cells, dose confirmation (AID 2454); format: functional, cell-based;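 note: H4 neuroglioblastoma cells carrying an alpha-synuclein 5'UTR luciferase reporter; potency for inhibition of the luciferase signal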
cells [19] = format: functional, cell-based; remark: listed apart in the source
[20] = cytotoxicity in COV362 ovarian cancer cells, dose response, cytotoxicity control for PAX8 inhibitor project, cell-based, plate reader, dry powder, SA12 (AID 743144); format: functional
[21] = cytotoxicity in OVCAR4 cells, dose response, cytotoxicity control for PAX8 inhibitor project, cell-based, plate reader, dry powder, SA11 (AID 743150); format: functional; settings: OVCAR-4
[22] = molecular target: T1, Microphthalmia-associated transcription factor (Homo sapiens, UniProt O75030); experiment: TRPM1 promoter luciferase signal decrease, dose response, MITF inhibitor project, cell-based, SK-MEL-5, cherry-picked, set 3 (AID 493073); format: functional
T1 sequence (O75030 whole entry): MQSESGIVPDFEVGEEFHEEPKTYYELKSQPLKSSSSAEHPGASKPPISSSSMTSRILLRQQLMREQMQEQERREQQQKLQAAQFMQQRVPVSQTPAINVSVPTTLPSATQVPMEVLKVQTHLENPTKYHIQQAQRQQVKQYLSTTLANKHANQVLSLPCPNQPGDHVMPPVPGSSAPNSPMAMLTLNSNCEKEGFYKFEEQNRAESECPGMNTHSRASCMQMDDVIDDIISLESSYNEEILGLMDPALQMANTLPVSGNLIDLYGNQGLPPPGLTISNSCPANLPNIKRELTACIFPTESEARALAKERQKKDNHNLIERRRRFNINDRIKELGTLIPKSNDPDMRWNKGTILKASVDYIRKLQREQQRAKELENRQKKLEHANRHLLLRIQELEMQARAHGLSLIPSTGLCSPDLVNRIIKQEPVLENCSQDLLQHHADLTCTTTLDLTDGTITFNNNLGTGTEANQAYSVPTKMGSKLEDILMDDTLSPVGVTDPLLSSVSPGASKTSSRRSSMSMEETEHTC

[23] = luciferase reporter signal reduction – luminescence, H4-C neuroglioblastoma cells, dose response (AID 2458); format: functional, cell-based;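 note: H4 neuroglioblastoma cells stably carrying a luciferase reporter gene fusion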
[24] = cytotoxicity in COV434 cells, dose response, cytotoxicity control for PAX8 inhibitor project, cell-based, plate reader, dry powder, SA7 (AID 743145); format: functional
[25] = PAX2 cell-based inhibition, dose response, selectivity assay for PAX8 inhibitor project, plate reader, dry powder samples (AID 743048); format: functional;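 note: HEK293 cells carrying a WT1 promoter luciferase reporter driven by expressed Pax2; potency is for inhibition of Pax2 driven reporter signal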
[26] = inhibitors of firefly luciferase expression or activity, dose response, H4 neuroglioma cells, luminescence (AID 1990); format: functional, cell-based
Paired box protein Pax-8 = Paired box protein Pax-8 (Homo sapiens, UniProt Q06710); experiment: inhibitors of PAX8-driven TPO luciferase reporter, dose response, RMG-I cells, cherry-pick (AID 687027); format: functional, cell-based;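 note: luciferase reporter driven by Pax8 target thyroperoxidase promoter measured by SteadyGlo luminescence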
[27] = molecular target: Lysine-specific demethylase 4C (Homo sapiens, UniProt Q9H3R0); experiment: GASC-1 (JMJD2C) histone demethylase inhibitors, dose response, biochemical, DELFIA europium, cherry-picked samples (AID 488835); format: functional
[28] = molecular target: Heat shock protein HSP 90-alpha (Homo sapiens, UniProt P07900); format: functional, organism-based
[29] = molecular target: Glucose-6-phosphate 1-dehydrogenase (Homo sapiens, UniProt P11413); experiment: human G6PD enzyme inhibitors, dose response, selectivity assay for P. falciparum G6PD inhibitor project, biochemical, fluorescence (AID 504792); format: functional
[30] = molecular target: Voltage-gated inwardly rectifying potassium channel KCNH2 (Homo sapiens, UniProt Q12809); settings: Potency;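 note: confirmatory quantitative high-throughput screen measuring inhibition of hERG channel activity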
[31] = microbe, parasite or virus in culture; format: functional; settings: Mycobacterium tuberculosis
[32] = molecular target: T2, Endoribonuclease toxin MazF (Escherichia coli K-12, UniProt P0AE70); experiment: MazF toxin RNase activators, dose response, biochemical, fluorescence, single-stranded RNA substrate, uHTS hits (AID 588481); format: functional
[33] = molecular target: T2, Endoribonuclease toxin MazF; experiment: fluorescent RNA oligo signal without MazF, dose response, counter-screen for MazEF activator project, biochemical, fluorescence, single-stranded RNase substrate (AID 588502); format: functional
[34] = molecular target: T3, Short transient receptor potential channel 4 (Mus musculus, UniProt Q9QUQ5); experiment: TRPC4 inhibitor concentration-response, dose response, cell-based, HEK293 TRPC4/mu-opioid, DAMGO stimulus, Fluo-4 (AID 492994); format: functional
T3 sequence (Q9QUQ5 whole entry): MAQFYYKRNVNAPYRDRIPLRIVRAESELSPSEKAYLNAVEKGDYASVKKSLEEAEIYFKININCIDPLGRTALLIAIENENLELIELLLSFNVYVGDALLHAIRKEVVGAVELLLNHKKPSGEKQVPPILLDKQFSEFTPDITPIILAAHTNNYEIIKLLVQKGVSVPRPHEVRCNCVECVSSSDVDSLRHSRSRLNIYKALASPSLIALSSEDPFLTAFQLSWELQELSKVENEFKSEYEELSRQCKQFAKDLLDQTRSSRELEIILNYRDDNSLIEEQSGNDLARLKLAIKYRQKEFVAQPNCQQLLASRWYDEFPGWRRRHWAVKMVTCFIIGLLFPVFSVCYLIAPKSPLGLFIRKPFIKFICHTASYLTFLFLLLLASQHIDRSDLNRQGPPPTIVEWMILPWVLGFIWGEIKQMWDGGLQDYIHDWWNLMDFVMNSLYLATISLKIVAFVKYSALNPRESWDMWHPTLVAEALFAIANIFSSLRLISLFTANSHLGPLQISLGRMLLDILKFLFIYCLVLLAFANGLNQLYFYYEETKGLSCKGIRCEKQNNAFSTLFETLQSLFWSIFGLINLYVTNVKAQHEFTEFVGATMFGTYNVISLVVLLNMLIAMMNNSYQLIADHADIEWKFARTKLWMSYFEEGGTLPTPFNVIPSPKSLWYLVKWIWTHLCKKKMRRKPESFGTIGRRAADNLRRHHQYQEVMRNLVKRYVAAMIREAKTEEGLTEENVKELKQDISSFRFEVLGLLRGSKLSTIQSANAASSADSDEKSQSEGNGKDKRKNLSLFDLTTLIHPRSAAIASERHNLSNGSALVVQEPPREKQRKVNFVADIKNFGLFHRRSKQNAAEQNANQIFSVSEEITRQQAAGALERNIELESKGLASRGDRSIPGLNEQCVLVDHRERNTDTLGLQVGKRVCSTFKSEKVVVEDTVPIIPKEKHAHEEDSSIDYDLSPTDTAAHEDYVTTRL

[35] = molecular target: T3, Short transient receptor potential channel 4; experiment: SAR Analysis for the identification of selective inhibits of the transient receptor potential cation channel C4 (TRPC4): Automated Electrophysiology_2. [Related pubchem assays (depositor defined):AID2256]; format: functional
[36] = molecular target: Potassium voltage-gated channel subfamily KQT member 2 (Rattus norvegicus, UniProt O88943); experiment: KCNQ2 channel activators, analog series, SAR follow-up, automated patch clamp, KCNQ2-CHO cells (AID 493113); format: functional
[37] = molecular target: Alkaline phosphatase, tissue-nonspecific isozyme (Homo sapiens, UniProt P05186); experiment: TNAP enzyme inhibition by screening hits, dose response, selectivity assay for mouse IAP inhibitor project, biochemical, human TNAP, uHTS hits (AID 488906); format: functional
[38] = molecular target: Intestinal-type alkaline phosphatase (Mus musculus, UniProt P24822); experiment: PubChem AID 488785; format: functional
[39] = molecular target: Intestinal-type alkaline phosphatase (Homo sapiens, UniProt P09923); experiment: inhibition of human intestinal alkaline phosphatase – biochemical, dose response (AID 488876); format: functional
Large T antigen = Large T antigen (Simian virus 40, UniProt P03070); format: functional, Betapolyomavirus macacae;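 note: Confirmatory-stage PubChem screen for compounds that inhibit SV40 T antigen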
Chain of Large T antigen (P03070 whole entry): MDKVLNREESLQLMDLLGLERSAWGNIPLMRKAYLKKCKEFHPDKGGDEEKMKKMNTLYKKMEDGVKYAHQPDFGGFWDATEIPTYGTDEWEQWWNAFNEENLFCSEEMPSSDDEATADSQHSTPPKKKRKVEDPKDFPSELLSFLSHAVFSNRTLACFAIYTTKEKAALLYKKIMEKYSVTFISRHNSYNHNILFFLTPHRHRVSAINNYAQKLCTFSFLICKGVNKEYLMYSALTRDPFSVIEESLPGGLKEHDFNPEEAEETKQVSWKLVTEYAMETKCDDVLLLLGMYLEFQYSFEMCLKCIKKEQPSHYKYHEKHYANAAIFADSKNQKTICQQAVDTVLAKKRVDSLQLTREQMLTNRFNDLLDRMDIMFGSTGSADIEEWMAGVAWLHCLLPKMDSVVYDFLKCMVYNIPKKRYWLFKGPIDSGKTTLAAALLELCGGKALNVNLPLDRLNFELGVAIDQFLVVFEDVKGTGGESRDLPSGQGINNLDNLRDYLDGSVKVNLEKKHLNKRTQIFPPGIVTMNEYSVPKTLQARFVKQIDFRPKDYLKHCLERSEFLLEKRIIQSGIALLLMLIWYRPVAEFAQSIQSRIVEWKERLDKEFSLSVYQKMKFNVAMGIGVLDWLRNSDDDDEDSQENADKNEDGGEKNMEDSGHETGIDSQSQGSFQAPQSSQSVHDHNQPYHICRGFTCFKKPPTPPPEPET

T2 sequence (P0AE70 whole entry): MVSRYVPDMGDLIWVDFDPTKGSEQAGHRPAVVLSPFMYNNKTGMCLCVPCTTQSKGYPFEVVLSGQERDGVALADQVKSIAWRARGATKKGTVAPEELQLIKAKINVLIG
Chain of Intestinal-type alkaline phosphatase (Homo sapiens, UniProt P09923) (P09923 whole entry): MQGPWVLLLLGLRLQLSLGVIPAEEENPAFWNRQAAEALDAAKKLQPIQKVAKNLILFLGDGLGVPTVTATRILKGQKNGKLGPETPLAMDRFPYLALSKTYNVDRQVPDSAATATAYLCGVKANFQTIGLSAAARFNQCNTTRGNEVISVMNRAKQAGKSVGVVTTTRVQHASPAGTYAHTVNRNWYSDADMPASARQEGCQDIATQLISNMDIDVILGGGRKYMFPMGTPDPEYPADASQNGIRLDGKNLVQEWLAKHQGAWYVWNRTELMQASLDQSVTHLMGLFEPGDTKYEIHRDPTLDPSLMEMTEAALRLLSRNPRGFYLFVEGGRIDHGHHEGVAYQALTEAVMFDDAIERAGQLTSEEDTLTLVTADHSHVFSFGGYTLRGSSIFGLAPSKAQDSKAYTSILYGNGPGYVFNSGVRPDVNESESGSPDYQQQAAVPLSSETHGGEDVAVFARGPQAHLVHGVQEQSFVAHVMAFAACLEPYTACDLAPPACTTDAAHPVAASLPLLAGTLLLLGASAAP
Chain of Potassium voltage-gated channel subfamily KQT member 2 (O88943 whole entry): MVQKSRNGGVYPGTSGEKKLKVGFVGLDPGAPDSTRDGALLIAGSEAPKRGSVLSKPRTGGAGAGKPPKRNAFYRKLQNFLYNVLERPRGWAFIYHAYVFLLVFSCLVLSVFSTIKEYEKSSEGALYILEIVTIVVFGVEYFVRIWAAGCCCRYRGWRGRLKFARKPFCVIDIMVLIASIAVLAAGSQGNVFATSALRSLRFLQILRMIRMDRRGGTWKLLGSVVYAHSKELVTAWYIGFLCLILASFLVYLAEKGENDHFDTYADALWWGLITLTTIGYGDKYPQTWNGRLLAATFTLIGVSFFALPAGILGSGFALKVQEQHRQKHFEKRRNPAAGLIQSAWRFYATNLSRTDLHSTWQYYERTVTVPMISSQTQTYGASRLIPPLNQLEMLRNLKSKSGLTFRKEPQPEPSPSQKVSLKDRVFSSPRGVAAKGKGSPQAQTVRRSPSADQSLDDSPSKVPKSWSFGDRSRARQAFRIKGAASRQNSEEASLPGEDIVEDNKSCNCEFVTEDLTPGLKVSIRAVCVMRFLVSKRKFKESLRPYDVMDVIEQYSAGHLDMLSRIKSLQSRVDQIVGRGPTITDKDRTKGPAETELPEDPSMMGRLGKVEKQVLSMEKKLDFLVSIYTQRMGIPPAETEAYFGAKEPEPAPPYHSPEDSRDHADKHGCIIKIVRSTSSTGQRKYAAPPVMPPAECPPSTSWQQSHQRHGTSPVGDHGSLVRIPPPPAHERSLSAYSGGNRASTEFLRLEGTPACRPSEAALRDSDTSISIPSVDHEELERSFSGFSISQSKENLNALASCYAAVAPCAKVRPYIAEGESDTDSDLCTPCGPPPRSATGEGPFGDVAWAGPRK
Chain of Intestinal-type alkaline phosphatase (Mus musculus, UniProt P24822) (P24822 whole entry): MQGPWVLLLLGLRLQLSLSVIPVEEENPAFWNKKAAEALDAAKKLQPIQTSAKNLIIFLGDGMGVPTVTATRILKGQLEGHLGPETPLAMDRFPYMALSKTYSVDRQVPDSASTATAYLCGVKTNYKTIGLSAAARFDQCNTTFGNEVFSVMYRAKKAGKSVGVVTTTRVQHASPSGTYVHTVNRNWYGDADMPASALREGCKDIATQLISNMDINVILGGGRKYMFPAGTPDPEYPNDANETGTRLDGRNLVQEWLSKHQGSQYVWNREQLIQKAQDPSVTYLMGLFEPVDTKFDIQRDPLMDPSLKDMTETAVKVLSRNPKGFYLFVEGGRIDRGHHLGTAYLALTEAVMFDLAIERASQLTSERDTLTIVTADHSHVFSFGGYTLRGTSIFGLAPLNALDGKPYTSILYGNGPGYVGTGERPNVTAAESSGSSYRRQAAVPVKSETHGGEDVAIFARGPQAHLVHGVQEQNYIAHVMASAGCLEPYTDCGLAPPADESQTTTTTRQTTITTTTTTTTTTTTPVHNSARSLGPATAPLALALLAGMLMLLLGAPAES
Chain of Paired box protein Pax-8 (Q06710 whole entry): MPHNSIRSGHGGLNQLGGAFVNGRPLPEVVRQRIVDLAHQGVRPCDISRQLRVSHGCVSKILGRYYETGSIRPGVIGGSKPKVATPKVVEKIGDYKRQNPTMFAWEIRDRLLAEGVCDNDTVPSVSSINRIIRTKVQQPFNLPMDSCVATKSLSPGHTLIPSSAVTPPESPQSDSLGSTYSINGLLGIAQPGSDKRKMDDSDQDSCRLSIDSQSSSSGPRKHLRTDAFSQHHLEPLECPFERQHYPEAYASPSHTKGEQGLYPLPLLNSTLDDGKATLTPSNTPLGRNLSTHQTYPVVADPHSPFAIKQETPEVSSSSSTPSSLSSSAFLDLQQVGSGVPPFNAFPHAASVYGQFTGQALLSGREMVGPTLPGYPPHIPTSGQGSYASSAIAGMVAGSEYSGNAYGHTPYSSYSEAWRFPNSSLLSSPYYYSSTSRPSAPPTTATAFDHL
Chain of Lysine-specific demethylase 4C (Q9H3R0 whole entry): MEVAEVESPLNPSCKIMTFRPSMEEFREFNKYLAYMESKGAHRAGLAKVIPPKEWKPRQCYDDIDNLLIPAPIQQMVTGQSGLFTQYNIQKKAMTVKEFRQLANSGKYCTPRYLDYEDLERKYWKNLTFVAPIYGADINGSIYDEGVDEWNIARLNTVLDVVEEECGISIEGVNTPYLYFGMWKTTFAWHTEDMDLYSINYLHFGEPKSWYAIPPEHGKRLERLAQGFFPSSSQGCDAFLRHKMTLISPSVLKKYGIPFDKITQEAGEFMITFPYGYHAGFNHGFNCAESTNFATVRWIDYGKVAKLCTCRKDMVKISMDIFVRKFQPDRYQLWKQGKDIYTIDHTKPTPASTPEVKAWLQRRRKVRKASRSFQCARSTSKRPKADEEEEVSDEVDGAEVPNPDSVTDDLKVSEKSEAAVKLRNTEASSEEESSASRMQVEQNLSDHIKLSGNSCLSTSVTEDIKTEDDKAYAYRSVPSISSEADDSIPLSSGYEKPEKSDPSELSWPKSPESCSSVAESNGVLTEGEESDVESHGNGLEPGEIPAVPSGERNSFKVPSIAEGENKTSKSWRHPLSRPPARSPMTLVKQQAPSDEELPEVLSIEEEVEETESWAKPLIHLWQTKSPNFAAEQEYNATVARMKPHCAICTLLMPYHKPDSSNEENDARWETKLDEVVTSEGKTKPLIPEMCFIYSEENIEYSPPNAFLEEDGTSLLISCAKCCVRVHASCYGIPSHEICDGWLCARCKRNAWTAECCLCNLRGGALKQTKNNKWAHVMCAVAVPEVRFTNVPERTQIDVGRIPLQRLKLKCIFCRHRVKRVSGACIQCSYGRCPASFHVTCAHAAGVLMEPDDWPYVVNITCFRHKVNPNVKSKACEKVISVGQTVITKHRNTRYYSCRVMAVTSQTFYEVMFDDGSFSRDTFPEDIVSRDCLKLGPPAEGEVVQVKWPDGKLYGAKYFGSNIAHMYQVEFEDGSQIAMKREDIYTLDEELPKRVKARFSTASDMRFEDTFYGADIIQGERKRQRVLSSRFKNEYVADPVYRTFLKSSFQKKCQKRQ
Chain of Glucose-6-phosphate 1-dehydrogenase (P11413 whole entry): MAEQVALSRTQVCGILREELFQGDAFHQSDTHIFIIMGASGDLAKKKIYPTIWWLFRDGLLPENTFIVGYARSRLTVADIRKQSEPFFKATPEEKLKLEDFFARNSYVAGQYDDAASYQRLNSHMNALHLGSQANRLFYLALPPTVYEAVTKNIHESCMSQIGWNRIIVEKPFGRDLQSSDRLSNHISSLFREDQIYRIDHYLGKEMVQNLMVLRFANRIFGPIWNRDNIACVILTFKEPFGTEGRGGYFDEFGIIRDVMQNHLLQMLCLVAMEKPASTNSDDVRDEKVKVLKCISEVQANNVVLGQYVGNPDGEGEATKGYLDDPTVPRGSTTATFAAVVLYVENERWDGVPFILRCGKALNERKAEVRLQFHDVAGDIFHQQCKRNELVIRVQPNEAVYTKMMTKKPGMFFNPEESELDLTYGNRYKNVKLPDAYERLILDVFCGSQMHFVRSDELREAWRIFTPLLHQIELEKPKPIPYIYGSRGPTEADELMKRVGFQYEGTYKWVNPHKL

## COc1cccc(N2CCN(C(=O)c3ccc(C[S+]([O-])c4ccccc4Cl)o3)CC2)c1 (stereo unspecified)
[1]
  AC50: 22 µM (active)
BJ [2]
  EC50: 37.7 µM (inconclusive)
A-375 [3]
  AC50: > 35 µM (active)
[4]
  IC50: > 67.6 µM (inactive)
[5]
  IC50: 58 µM (inactive)
[6]
  EC50: 0.225 µM (active)
[7]
  EC50: < 0.1 µM (active)
BJ [8]
  EC50: 0.214 µM (active)
[9]
  EC50: < 0.1 µM (active)
[10]
  AC50: 5 µM (active)
[11]
  AC50: 72 µM (active)
Cells [12]
  IC50: > 67.6 µM (inactive)
A-375 [13]
  AC50: > 35 µM (active)
[14]
  AC50: 3.98 µM (active)
[15]
  AC50: 0.478 µM (active)
[16]
  AC50: 2.03 µM (active)
[17]
  AC50: 0.537 µM (active)
[18]
  EC50: 0.354 µM (active)
Cells [19]
  EC50: 0.345 µM (active)
[20]
  AC50: 2.03 µM (active)
[21]
  AC50: 0.646 µM (active)
[22]
  AC50: 0.894 µM (active)
[23]
  EC50: 0.202 µM (active)
[24]
  AC50: 0.684 µM (active)
[25]
  AC50: 37.5 µM (active)
[26]
  EC50: < 0.1 µM (active)
Paired box protein Pax-8
  AC50: 0.921 µM (active)

## Cc1ccc(-c2csc(NC(=O)CSc3nc(C)cc(O)n3)n2)cc1
[27]
  AC50: 10.6 µM (active)

## CCCCCCCCn1sccc1=O
[28]
  AC50: 0.649 µM (active)
[29]
  IC50: 59.3 µM (inactive)
[30]
  AC50: 44.7 µM (inconclusive)
[31]
  CC50: 11.3 µM (active)

## Cc1c(C=NNC(=O)c2ccc(Br)cc2)c2ccccn2c1C(=O)c1ccncc1
[32]
  EC50: > 99 µM (inactive)
[33]
  EC50: > 99 µM (inactive)

## CCc1ccc2nc(N3CCCCCC3)cc(C)c2c1
[34]
  IC50: 7.37 µM (active)
[35]
  IC50: 3.3 µM (active)

## Nc1cccc(NC(=O)C2CC3CCC2C3)n1 (stereo unspecified)
[36]
  EC50: 1.81 µM (active)

## O=S(=O)(c1ccc(NC(=S)N/N=C/c2ccc(O)c(O)c2)cc1)N1CCOCC1
[37]
  IC50: 15.1 µM (active)
[38]
  IC50: 2.84 µM (active)
[39]
  IC50: < 0.195 µM (active)
Large T antigen
  IC50: 38.4 µM (active)

— ChEMBL document CHEMBL1201862, “PubChem BioAssay data set” (2004)
